Measurements reported in patent US7112680B2, “Heterocyclic hydrazones for use as anti-cancer agents” (Austria Wirtschaftsservice Gesellschaft MIT Beschrankter …, priority 2000, dated 2006).
Where two headings read alike, the source gives them in different places.

Key:
[1] = test system: Burkitt's lymphoma (CA 46, ATCC No. CRL 1648); assay: Inhibition of tumor cell growth, MTT-assay, Burkitt's lymphoma; type: cell-based, human
How it was run: (§1)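 Cells seeded at 3,000–10,000 (or ~10,000) per well in 96-well plates; compounds dissolved in DMSO. After treatment, samples fixed, washed and absorbance read on a microplate reader (SRB or MTT read-out according to the assay).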

[2] = test system: HeLa (epitheloid cervix carcinoma); assay: Inhibition of tumor cell growth, SRB-assay, HeLa; type: cell-based, human
[3] = test system: HT-29 (colon adenocarcinoma); assay: Inhibition of tumor cell growth, SRB-assay, HT-29; type: cell-based, human
How it was run: as §1

MEXF 276L (melanoma) = assay: Inhibition of tumor cell growth, SRB-assay, MEXF 276L; type: cell-based, human; settings: Table 2, 72 hours, read-out: IC50 MEXF276L
Description: The KB cell lines were grown in Dulbecco's modified Eagle's medium (4,5 g glucose/l). To the cultures of KB-C1 cells 1 μg of colchicine/ml, and to the hydroxyurea-resistant KB-HU cells 1 mM hydroxyurea was added every other week. […] 3,000 - 10,000 cells in 200 μl medium were seeded per well into 96-well plates. […] Approximately 10,000 cells per 100 μl were seeded in 96-well plates. […] The substances were dissolved in dimethylsulfoxide (DMSO). […] Subsequently, the samples were fixed, washed, and the absorption was determined by a microplate reader.

[4] = test system: CCRF-CEM (acute lymphoblastic leukemia); assay: Inhibition of tumor cell growth, MTT-assay, CCRF-CEM; type: cell-based, human; settings: Table 2, 72 hours
[5] = test system: up to 12 different tumor cells in permeable hoses; assay: Hollow fibre assay; type: in vivo; settings: mice implanted with tumor cells in permeable hoses
Description: Substances Ib-11 and Ib-24 were also tested in the so-called hollow fibre assay for their anti-tumor activity. For this purpose, mice were implanted with up to 12 different tumor cells in permeable hoses and treated with the compounds according to the invention.

[6] = test system: KB-3-1 (human oral epidermoid carcinoma); assay: Inhibition of tumor cell growth, SRB-assay, KB-3-1; type: cell-based; settings: Homo sapiens, KB 3-1, Table 4, 72 hours, read-out: In vitro-activity against human tumor cell lines, KB-3-1
How it was run: (§2)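 KB lines are grown in DMEM with 10% FCS, KB-C1 kept under 1 μg/ml colchicine and KB-HU under 1 mM hydroxyurea. After 3,000–10,000 cells are seeded per well, compounds (0.5% DMSO) are added after 4 h and the cells incubated 72 h at 37 °C. Growth is read by SRB absorbance.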

[7] = test system: KB-HU hydroxyurea-resistant cells; assay: Inhibition of tumor cell growth, SRB-assay, KB-HU; type: cell-based, human; settings: Homo sapiens, Table 4, 72 hours, read-out: In vitro-activity against human tumor cell lines, KB-HU
How it was run: as §2

[8] = test system: multidrug-resistant KB-C1 cells; assay: Inhibition of tumor cell growth, SRB-assay, KB-C1; type: cell-based, human; settings: Homo sapiens, KBC-1, Table 4, 72 hours, read-out: In vitro-activity against human tumor cell lines, KB-C1
How it was run: as §2

Burkitt's lymphoma cells = assay: Apoptosis determination with propium iodide; type: cell-based, human
Description: In non-treated Burkitt's lymphoma cells, an average of 1.7% are apoptotic. […] The determination of the apoptosis was performed with propium iodide (Nicoletti et al., Rapid and Simple Method for Measuring Thymocyte Apoptosis by Propium Iodine Staining and Flow Cytometry, J. Immunol. Methods, 139, 271–279, 1991).

[9] = Table 2, 72 hours, read-out: IC50 Burkitts
[10] = Table 2, 72 hours, read-out: IC50 HeLa (converted)
[11] = Table 2, 72 hours, read-out: IC50 HT-29 (converted)

| IC50 [1, 9] | IC50 [2, 10] | IC50 [3, 11] | IC50 (MEXF 276L (melanoma)) | IC50 [4] | IC50 ([1]; Homo sapiens, CA46, Table 4, 72 hours, read-out: In vitro-activity against human tumor cell lines, Burkitts) | IC50 ([2]; Homo sapiens, HeLa, Table 4, 72 hours, read-out: In vitro-activity against human tumor cell lines, HeLa) | IC50 ([3]; Homo sapiens, HT-29, Table 4, 72 hours, read-out: In vitro-activity against human tumor cell lines, HT-29) | IC50 [6] | IC50 [7] | IC50 [8] | SMILES | anti-tumor activity in hollow fibre assay [5] | induction of apoptosis (in words) (Burkitt's lymphoma cells; tumor cells) | apoptotic cells (Burkitt's lymphoma cells; twice the IC50 concentrations, 48 hours, non-treated cells 1.7%) |
| --- | --- | --- | --- | --- | --- | --- | --- | --- | --- | --- | --- | --- | --- | --- |
| 1320 nM | 1710 nM | 710 nM | 2130 nM | 900 nM | – | – | – | – | – | – | CC(=NNc1nc2ccccc2[nH]1)c1cnccn1 [Ib-11] | exhibit anti-tumor activity | – | – |
| 25 nM | 63 nM | 230 nM | 650 nM | 130 nM | – | – | – | – | – | – | CC(=NNc1nc2ccccc2o1)c1cc2ccccc2cn1 [Ib-24] | exhibit anti-tumor activity | – | – |
| – | – | – | – | – | 1450 nM | 2350 nM | 3360 nM | 3.85 µM | 9.94 µM | 3.08 µM | CC(=NNc1nc2ccccc2n1C)c1cccc(-c2ccccc2)n1 [Id-17, 1-(6-Phenyl-2-pyridyl)-1-ethanone-1-(1-methyl-1H-benzo[d]imidazol-2-yl)-hydrazone] | – | capable of inducing apoptosis | 85% |
